Columns and labels:
[1] = tested on: primary mouse hepatocytes; assay: In vitro glucose production, VPC and lipolysis in isolated hepatocytes; type: cell-based
Method in brief: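 Primary mouse hepatocytes were plated and cultured overnight in low-glucose DMEM, with 10% FBS for glucose production or serum-free 0.5% BSA medium for lipolysis. Media were then collected after 8 hr at 37° C for glucose, NEFA and glycerol, and VPC was derived as the PINTA VPC/VEGP ratio × glucose production. Agents were present through the 8-hr assay, and values were normalized to total protein and expressed as fold change vs vehicle.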

[2] = tested on: primary hepatocytes (cytosolic and mitochondrial calcium); assay: Ca2+ imaging in isolated hepatocytes; type: cell-based, mouse; conditions: isolated WT hepatocytes (not InsP3R-I KO); 100 nM glucagon or 50 nM vasopressin
Description: Primary hepatocytes were isolated by the Yale Liver Center from wild-type and InsP3R-I KO mice and plated on glass coverslips coated with Rat Collagen Type I. Cells were loaded with the ratiometric cytosolic Ca^2+ indicator dye, Fura-2 AM (Thermo Fisher Scientific), or the mitochondrial matrix-targeted Ca^2+ indicator, Rhod-2 AM (Thermo Fisher Scientific) according to manufacturer's instructions. Ca^2+ imaging experiments were performed in 4-(2-hydroxyethyl)-1-piperazine ethanesulfonic acid (HEPES)-buffered balanced salt solution (25 mM HEPES, 121 mM NaCl, 4.7 mM KCl, 1.2 mM MgSO4, 1.2 mM KPO4, 5 mM NaHCO3, 2.0 mM CaCl2, 10 mM Glucose, pH 7.4) with or without the PKA inhibitor H-89 (25 μM) two to five hr following initial plating. Coverslips were transferred to a custom-built perfusion chamber on the stage of an inverted microscope connected to a RedShirtImaging camera (Olympus Life Science, Waltham, Mass.). […] For cytoplasmic calcium readings, changes in fluorescence (F, λ=340) were normalized by the initial fluorescence (F0, λ=380) and were expressed as F/F0. […] Individual cell responses were normalized to their respective baseline Rhod-2 AM fluorescence values, and changes were expressed as Normalized Δ Fluorescence.

[3] = isolated WT hepatocytes, 100 nM glucagon, 8 hr

glucagon
increases in NEFA and glycerol production ([1]; WT hepatocytes, glucagon, not InsP3R-I deficient): 60-100% | increase in VPC flux [1, 3]: two-fold | increase in glucose production [1, 3]: two-fold | mitochondrial and cytosolic calcium signaling [2]: increases

From patent publication US11484608B2, “Non-invasive assessment of hepatic mitochondrial metabolism by positional isotopomer NMR tracer analysis (PINTA)” (YALE UNIVERSITY, priority 2017, dated 2022)
